pIC50: −log10 of the molar value.
What follows are compounds tested against Wild type FGFR2 (Homo sapiens (Human), UniProt P21802) (assay: FGFR2 kinase assay (fluorescence-based microfluidic mobility shift assay)). Conditions: wild type FGFR2 0.06 nM, 100 μM ATP, 80 minutes at room temperature; class symbols.
Assay type: biochemical

Chain of Wild type FGFR2 (P21802 22-821): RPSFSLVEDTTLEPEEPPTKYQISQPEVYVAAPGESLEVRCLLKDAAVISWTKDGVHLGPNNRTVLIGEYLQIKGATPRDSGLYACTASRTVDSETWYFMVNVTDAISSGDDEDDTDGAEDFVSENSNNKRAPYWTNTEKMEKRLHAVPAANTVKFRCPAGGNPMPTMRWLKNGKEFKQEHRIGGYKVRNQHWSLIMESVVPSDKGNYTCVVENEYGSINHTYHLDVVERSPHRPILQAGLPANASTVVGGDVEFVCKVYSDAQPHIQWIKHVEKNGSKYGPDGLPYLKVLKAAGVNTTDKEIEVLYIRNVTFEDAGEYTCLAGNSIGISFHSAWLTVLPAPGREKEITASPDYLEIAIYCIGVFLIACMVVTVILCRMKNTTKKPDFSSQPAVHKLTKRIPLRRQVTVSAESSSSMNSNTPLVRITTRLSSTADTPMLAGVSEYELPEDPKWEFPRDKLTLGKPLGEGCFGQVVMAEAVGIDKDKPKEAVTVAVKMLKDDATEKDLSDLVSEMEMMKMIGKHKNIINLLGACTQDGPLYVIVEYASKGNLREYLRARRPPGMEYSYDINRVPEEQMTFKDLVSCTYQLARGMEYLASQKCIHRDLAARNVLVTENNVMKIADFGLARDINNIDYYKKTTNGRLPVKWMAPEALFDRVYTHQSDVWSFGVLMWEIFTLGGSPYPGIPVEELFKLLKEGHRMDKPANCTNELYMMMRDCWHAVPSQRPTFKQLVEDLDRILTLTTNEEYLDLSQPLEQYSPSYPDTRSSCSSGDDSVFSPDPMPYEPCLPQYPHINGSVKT

pIC50 | SMILES
≥ 7.00 | C=CC(=O)N1C[C@@H](n2nc(C#Cc3ccc4nccnc4c3)c(C(N)=O)c2NC)C[C@@H]1COC [Example 64, 1-[(3S,5R)-5-(Methoxymethyl)-1-(prop-2-enoyl)pyrrolidin-3-yl]-5-(methylamino)-3-[2-(quinoxalin-6-yl)ethynyl] pyrazole-4-carboxamide]
≥ 7.00 | C=CC(=O)N1C[C@@H](n2nc(C#Cc3ccc4cc(C)cnc4c3)c(C(N)=O)c2NC)C[C@@H]1COC [Example 65, 1-((3S,5R)-1-Acryloyl-5-(methoxymethyl)pyrrolidin-3-yl)-5-(methylamino)-3-((3-methylquinolin-7-yl)ethynyl)-1H-pyrazole-4-carboxamide]
≥ 7.00 | C=CC(=O)N1C[C@@H](n2nc(C#Cc3ccc4ccnn4c3)c(C(N)=O)c2NC)C[C@@H]1COC [Example 67, 1-[(3S,5R)-5-(Methoxymethyl)-1-(prop-2-enoyl)pyrrolidin-3-yl]-5-(methylamino)-3-(2-[pyrazolo[1,5-a]pyridin-6-yl]ethynyl)pyrazole-4-carboxamide]
≥ 7.00 | C=CC(=O)N1C[C@@H](n2nc(C#Cc3ccc4c(ncn4CC)c3F)c(C(N)=O)c2NC)C[C@@H]1COC [Example 68, 1-((3S,5R)-1-Acryloyl-5-(methoxymethyl)pyrrolidin-3-yl)-3-((1-ethyl-4-fluoro-1H-benzo[d]imidazol-5-yl)ethynyl)-5-(methylamino)-1H-pyrazole-4-carboxamide]
≥ 7.00 | C=CC(=O)N1C[C@@H](n2nc(C#Cc3ccc4nc(C)cnc4c3)c(C(N)=O)c2NC)C[C@@H]1COC [Example 69, 1-((3S,5R)-1-Acryloyl-5-(methoxymethyl)pyrrolidin-3-yl)-5-(methylamino)-3-((2-methylquinoxalin-6-yl)ethynyl)-1H-pyrazole-4-carboxamide]
≥ 7.00 | C=CC(=O)N1C[C@@H](n2nc(C#Cc3ccc4c(ncn4C)c3F)c(C(N)=O)c2NC)C[C@@H]1COC [Example 71, 1-((3S,5R)-1-Acryloyl-5-(methoxymethyl)pyrrolidin-3-yl)-3-((4-fluoro-1-methyl-1H-benzo[d]imidazol-5-yl)ethynyl)-5-(methylamino)-1H-pyrazole-4-carboxamide]
≥ 7.00 | C=CC(=O)N1C[C@@H](n2nc(C#Cc3ccc4ncc(C)nc4c3)c(C(N)=O)c2NC)C[C@@H]1COC [Example 72, 1-((3S,5R)-1-Acryloyl-5-(methoxymethyl)pyrrolidin-3-yl)-5-(methylamino)-3-((3-methylquinoxalin-6-yl)ethynyl)-1H-pyrazole-4-carboxamide]
≥ 7.00 | C=CC(=O)N1C[C@@H](n2nc(C#Cc3ccc4ncn(C(F)F)c4c3)c(C(N)=O)c2NC)C[C@@H]1COC [Example 73, 3-[2-[3-(Difluoromethyl)-1,3-benzodiazol-5-yl]ethynyl]-1-[(3S,5R)-5-(methoxymethyl)-1-(prop-2-enoyl)pyrrolidin-3-yl]-5-(methylamino)pyrazole-4-carboxamide]
≥ 7.00 | C=CC(=O)N1C[C@@H](n2nc(C#Cc3ccc4c(C)ccnc4c3)c(C(N)=O)c2NC)C[C@@H]1COC [Example 74, 1-[(3S,5R)-5-(Methoxymethyl)-1-(prop-2-enoyl)pyrrolidin-3-yl]-5-(methylamino)-3-[2-(4-methylquinolin-7-yl)ethynyl]pyrazole-4-carboxamide]
≥ 7.00 | C=CC(=O)N1C[C@@H](n2nc(C#Cc3ccn4c(C)cnc4c3)c(C(N)=O)c2NC)C[C@@H]1COC [Example 75, 1-[(3S,5R)-5-(Methoxymethyl)-1-(prop-2-enoyl)pyrrolidin-3-yl]-5-(methylamino)-3-(2-[3-methylimidazo[1,2-a]pyridin-7-yl]ethynyl)pyrazole-4-carboxamide]
≥ 7.00 | C=CC(=O)N1C[C@@H](n2nc(C#Cc3cc4c(cc3F)ncn4C(F)F)c(C(N)=O)c2NC)C[C@@H]1COC [Example 76, 3-[2-[3-(Difluoromethyl)-6-fluoro-1,3-benzodiazol-5-yl]ethynyl]-1-[(3S,5R)-5-(methoxymethyl)-1-(prop-2-enoyl)pyrrolidin-3-yl]-5-(methylamino)pyrazole-4-carboxamide]
≥ 7.00 | C=CC(=O)N1C[C@@H](n2nc(C#Cc3cc4ncn(C)c4cc3F)c(C(N)=O)c2NC)C[C@@H]1COC(F)(F)F [Example 79, 3-[2-(6-Fluoro-1-methyl-1,3-benzodiazol-5-yl)ethynyl]-5-(methylamino)-1-[(3S,5R)-1-(prop-2-enoyl)-5-[(trifluoromethoxy)methyl]pyrrolidin-3-y]pyrazole-4-carboxamide]
≥ 7.00 | C=CC(=O)N1C[C@@H](n2nc(C#Cc3cc4ncn(CC)c4cc3F)c(C(N)=O)c2NC)C[C@@H]1COC(F)(F)F [Example 80, 3-[2-(1-Ethyl-6-fluoro-1,3-benzodiazol-5-yl)ethynyl]-5-(methylamino)-1-[(3S,5R)-1-(prop-2-enoyl)-5-[(trifluoromethoxy)methyl]pyrrolidin-3-yl]pyrazole-4-carboxamide]
≥ 7.00 | C=CC(=O)N1C[C@@H](n2nc(C#Cc3cc4ncn(C(F)F)c4cc3F)c(C(N)=O)c2NC)C[C@@H]1COC(F)(F)F [Example 81, 3-[2-[1-(Difluoromethyl)-6-fluoro-1,3-benzodiazol-5-yl]ethynyl]-5-(methylamino)-1-[(3S,5R)-1-(prop-2-enoyl)-5-[(trifluoromethoxy)methyl]pyrrolidin-3-yl]pyrazole-4-carboxamide]
≥ 7.00 | C=CC(=O)N1C[C@@H](n2nc(C#Cc3cc4nc(C)n(C)c4cc3Cl)c(C(N)=O)c2NC)C[C@@H]1COC [Example 82, 3-[2-(6-Chloro-1,2-dimethyl-1,3-benzodiazol-5-yl)ethynyl]-1-[(3S,5R)-5-(methoxymethyl)-1-(prop-2-enoyl)pyrrolidin-3-yl]-5-(methylamino)pyrazole-4-carboxamide]
≥ 7.00 | C=CC(=O)N1C[C@@H](n2nc(C#Cc3ccc4ccc(C)nc4c3)c(C(N)=O)c2NC)C[C@@H]1COC [Example 83, 1-[(3S,5R)-5-(Methoxymethyl)-1-(prop-2-enoyl)pyrrolidin-3-yl]-5-(methylamino)-3-[2-(2-methylquinolin-7-yl)ethynyl]pyrazole-4-carboxamide]
≥ 7.00 | C=CC(=O)N1C[C@@H](n2nc(C#Cc3c(F)cc4c(ncn4C)c3F)c(C(N)=O)c2NC)C[C@@H]1COC(F)(F)F [Example 84]
≥ 7.00 | C=CC(=O)N1C[C@@H](n2nc(C#Cc3c(F)cc4c(ncn4CC)c3F)c(C(N)=O)c2NC)C[C@@H]1COC(F)(F)F [Example 85, 3-[2-(1-Ethyl-4,6-difluoro-1,3-benzodiazol-5-yl)ethynyl]-5-(methylamino)-1-[(3S,5R)-1-(prop-2-enoyl)-5-[(trifluoromethoxy)methyl]pyrrolidin-3-yl]pyrazole-4-carboxamide]
≥ 7.00 | C=CC(=O)N1C[C@@H](n2nc(C#Cc3cc4nc[nH]c4cc3F)c(C(N)=O)c2NC)C[C@@H]1COC(F)(F)F [Example 86, 3-[2-(6-Fluoro-1H-1,3-benzodiazol-5-yl)ethynyl]-5-(methylamino)-1-[(3S,5R)-1-(prop-2-enoyl)-5-[(trifluoromethoxy)methyl]pyrrolidin-3-yl]pyrazole-4-carboxamide]
≥ 7.00 | C=CC(=O)N1C[C@@H](n2nc(C#Cc3cc4nc(C)[nH]c4cc3Cl)c(C(N)=O)c2NC)C[C@@H]1COC(F)(F)F [Example 87, 3-[2-(6-Chloro-2-methyl-1H-1,3-benzodiazol-5-yl)ethynyl]-5-(methylamino)-1-[(3S,5R)-1-(prop-2-enoyl)-5-[(trifluoromethoxy)methyl]pyrrolidin-3-yl]pyrazole-4-carboxamide]
≥ 7.00 | C=CC(=O)N1C[C@@H](n2nc(C#Cc3cc4ncn(C)c4cc3Cl)c(C(N)=O)c2NC)C[C@@H]1COC [Example 88, 3-[2-(6-Chloro-1-methyl-1,3-benzodiazol-5-yl)ethynyl]-1-[(3S,5R)-5-(methoxymethyl)-1-(prop-2-enoyl)pyrrolidin-3-yl]-5-(methylamino)pyrazole-4-carboxamide]
≥ 7.00 | C=CC(=O)N1C[C@@H](n2nc(C#Cc3cc4ncn(CC)c4cc3Cl)c(C(N)=O)c2NC)C[C@@H]1COC [Example 89, 3-[2-(6-Chloro-1-ethyl-1,3-benzodiazol-5-yl)ethynyl]-1-[(3S,5R)-5-(methoxymethyl)-1-(prop-2-enoyl)pyrrolidin-3-yl]-5-(methylamino)pyrazole-4-carboxamide]
≥ 7.00 | C=CC(=O)N1C[C@@H](n2nc(C#Cc3cc4nc[nH]c4cc3F)c(C(N)=O)c2NC)C[C@@H]1COC [Example 90, 3-[2-(6-Fluoro-1H-1,3-benzodiazol-5-yl)ethynyl]-1-[(3S,5R)-5-(methoxymethyl)-1-(prop-2-enoyl)pyrrolidin-3-yl]-5-(methylamino)pyrazole-4-carboxamide]
≥ 7.00 | C=CC(=O)N1C[C@@H](n2nc(C#Cc3cc4nc(C)[nH]c4cc3F)c(C(N)=O)c2NC)C[C@@H]1COC [Example 91, 3-[2-(6-Fluoro-2-methyl-1H-1,3-benzodiazol-5-yl)ethynyl]-1-[(3S,5R)-5-(methoxymethyl)-1-(prop-2-enoyl)pyrrolidin-3-yl]-5-(methylamino)pyrazole-4-carboxamide]
≥ 7.00 | C=CC(=O)N1C[C@@H](n2nc(C#Cc3cc4nc[nH]c4cc3Cl)c(C(N)=O)c2NC)C[C@@H]1COC [Example 92, 3-[2-(6-Chloro-1H-1,3-benzodiazol-5-yl)ethynyl]-1-[(3S,5R)-5-(methoxymethyl)-1-(prop-2-enoyl)pyrrolidin-3-yl]-5-(methylamino)pyrazole-4-carboxamide]

SMILES | pIC50
C=CC(=O)N1C[C@@H](n2nc(C#Cc3ccc4c(c3)ncn4C(F)F)c(C(N)=O)c2NC)C[C@@H]1COC [Example 70, 3-[2-[1-(Difluoromethyl)-1,3-benzodiazol-5-yl]ethynyl]-1-[(3S,5R)-5-(methoxymethyl)-1-(prop-2-enoyl)pyrrolidin-3-yl]-5-(methylamino)pyrazole-4-carboxamide] | ≥ 7.00
C=CC(=O)N1C[C@@H](n2nc(C#Cc3cc4ncn(C(F)F)c4cc3F)c(C(N)=O)c2NC)C[C@@H]1COC [Example 77, 3-[2-[1-(Difluoromethyl)-6-fluoro-1,3-benzodiazol-5-yl]ethynyl]-1-[(3S,5R)-5-(methoxymethyl)-1-(prop-2-enoyl)pyrrolidin-3-yl]-5-(methylamino)pyrazole-4-carboxamide] | ≥ 7.00

From patent publication US11345681B1, “Inhibitors of fibroblast growth factor receptor kinases” (Kinnate Biopharma Inc., priority 2020, dated 2022)
